{"source": "patent US9006269B2", "about": "“Azetidine derivatives” (Vernalis (R&D) Ltd., priority 2008, dated 2015)", "key": {"[1]": {"molecular_target": "rat FAAH protein (30-579) (Rattus norvegicus (Rat), UniProt P97612)", "sequence (P97612 30-579)": "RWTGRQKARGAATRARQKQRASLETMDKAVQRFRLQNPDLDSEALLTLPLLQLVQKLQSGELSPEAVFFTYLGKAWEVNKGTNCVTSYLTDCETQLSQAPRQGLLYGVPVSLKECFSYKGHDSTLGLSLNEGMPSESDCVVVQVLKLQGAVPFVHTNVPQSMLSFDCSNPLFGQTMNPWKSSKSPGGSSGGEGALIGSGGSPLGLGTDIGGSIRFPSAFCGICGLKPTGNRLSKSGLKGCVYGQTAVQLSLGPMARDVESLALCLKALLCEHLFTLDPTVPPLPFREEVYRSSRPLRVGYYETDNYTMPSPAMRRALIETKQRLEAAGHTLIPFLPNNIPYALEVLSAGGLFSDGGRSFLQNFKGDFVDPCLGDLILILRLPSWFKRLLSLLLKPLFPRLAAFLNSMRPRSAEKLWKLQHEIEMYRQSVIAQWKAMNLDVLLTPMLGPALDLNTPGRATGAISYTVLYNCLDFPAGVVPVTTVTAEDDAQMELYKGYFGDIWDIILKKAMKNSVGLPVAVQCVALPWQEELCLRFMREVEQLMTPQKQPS", "assay": "Rat FAAH inhibition assay (AAMCA fluorescence)", "format": "biochemical", "settings": "3-hour pre-incubation with compound, 120 nM FAAH; read-out: FAAH Rat IC50 (nM) 180 minutes", "source_text": "Rat FAAH Inhibition Assay\nActive rat FAAH protein (30-579) was isolated as described in the literature. The coding sequence of amino acids 30-579 of rat FAAH were cloned into the expression vector pET28a to provide an N-terminal His-tag. Following expression, the His-tagged FAAH′ (30-579) was isolated using a method based on Patricelli et al., 1998; Biochemistry vol 37, p 15177 with a combination of chelating sepharose, heparin sepharose and size exclusion chromatography.\nFAAH activity was determined by measuring the liberation of the highly fluorescent 7-amino, 4-methyl Coumarin (AMC) generated during hydrolysis of the substrate Arachidonoyl 7-Amino, 4-methyl Coumarin Amide (AAMCA) by FAAH. Inhibition of FAAH activity was determined as a percentage reduction of the fluorescence determined in the absence of compound.\nThe assay was carried out in black-walled, clear bottom, 384-well plates. 27.5 μl of FAAH protein (in FAAH assay buffer: 50 mM Hepes, 0.01% Triton X-100, 1 mM EDTA, 0.5 mg/ml BSA (fatty-acid-free), pH 8.2) was pre-incubated, at 120 nM, with increasing concentrations of compounds (2.5 μl in 100% DMSO) for 0, 1 or 3 hours at room temperature. 2.5 μl of DMSO was added for ‘total’ controls (100% FAAH activity) and 2.5 μl of URB-597, a known inhibitor of FAAH activity, (at a final, saturating, concentration of 10 μM) was used for ‘non-specific’ controls (0% FAAH activity). 20 μl of 7.5 μM AAMCA substrate (in FAAH assay buffer) was then added to all wells and incubated at room temperature for a further 1.5 hours. Fluorescence was determined at an excitation wavelength of 355 nm and an emission wavelength of 460 nm using a Flexstation plate reader (Molecular Devices, UK). Inhibition of FAAH activity, by the compounds, was determined as the percentage reduction in relative fluorescence units (RFU) compared to the ‘total’ controls (in the absence of compound) minus the ‘non-specific’ controls. IC50 values were determined, from 10-point dose response curves, in XL-Fit using a 4-Parameter Logistic Model (Sigmoidal Dose-Response Model).\nThe following Table 1 provides the 3-hour incubation results of testing the compounds of Examples 1-4 herein in the above rat FAAH inhibition assay."}, "FAAH": {"molecular_target": "FAAH (Homo sapiens (Human), UniProt O00519)", "sequence (O00519 whole entry)": "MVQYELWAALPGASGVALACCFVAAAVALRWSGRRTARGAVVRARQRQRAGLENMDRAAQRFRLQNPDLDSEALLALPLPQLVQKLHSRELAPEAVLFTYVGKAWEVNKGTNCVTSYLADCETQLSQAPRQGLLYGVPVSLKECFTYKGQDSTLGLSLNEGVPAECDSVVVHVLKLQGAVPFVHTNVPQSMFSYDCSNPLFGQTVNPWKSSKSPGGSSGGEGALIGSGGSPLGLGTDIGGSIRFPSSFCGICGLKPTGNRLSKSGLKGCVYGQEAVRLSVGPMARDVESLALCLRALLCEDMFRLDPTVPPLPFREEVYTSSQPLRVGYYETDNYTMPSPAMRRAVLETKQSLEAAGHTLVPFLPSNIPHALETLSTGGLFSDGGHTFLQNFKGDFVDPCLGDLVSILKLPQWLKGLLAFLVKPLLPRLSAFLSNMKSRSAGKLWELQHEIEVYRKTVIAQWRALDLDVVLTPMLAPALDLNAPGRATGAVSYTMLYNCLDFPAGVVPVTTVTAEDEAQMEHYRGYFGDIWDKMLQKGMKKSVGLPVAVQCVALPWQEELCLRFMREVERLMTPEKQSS", "assay": "Intrinsic FAAH inhibitory potency (summary statement)", "format": "biochemical", "settings": "qualitative statement"}, "[2]": {"assay": "Plasma concentrations after oral administration in laboratory rats", "format": "in vivo, rat"}, "human FAAH 1": {"molecular_target": "human FAAH 1 (Homo sapiens (Human), UniProt O00519)", "sequence (O00519 whole entry)": "as above", "assay": "Human FAAH 1 assay (AAMCA fluorescence)", "format": "biochemical", "settings": "1 hour pre-incubation with compound, 10 nM FAAH; read-out: FAAH Human IC50 (nM) 60 minutes (n = 2)", "protocol": "Part B Human FAAH 1 Assay\nHuman FAAH 1 activity was determined by measuring the liberation of the highly fluorescent 7-amino, 4-methyl Coumarin (AMC) generated during hydrolysis of the substrate arachidonoyl 7-amino, 4-methyl coumarin amide (AAMCA) by FAAH. Inhibition of human FAAH 1 activity was determined as a percentage reduction of the fluorescence determined in the absence of compound.\nThe assay was carried out in black-walled, clear bottom, 384-well plates. 27.5 μl of human FAAH 1 protein (in FAAH assay buffer: 50 mM Hepes, 0.01% Triton X-100, 1 mM EDTA, 0.5 mg/ml BSA (fatty-acid-free), pH 8.2) was pre-incubated, at 10 nM, with increasing concentrations of compounds (2.5 μl in 100% DMSO) for 1 hour at room temperature. 2.5 μl of DMSO was added for ‘total’ controls (100% FAAH activity) and 2.5 μl of URB-597, a known inhibitor of FAAH activity, (at a final, saturating, concentration of […]) was used for ‘non-specific’ controls (0 FAAH activity). 20 μl of 7.5 μM AAMCA substrate (in FAAH assay buffer) was then added to all wells and incubated at room temperature for a further 4 hours. Fluorescence was determined at an excitation wavelength of 355 nm and an emission wavelength of 460 nm using a Flexstation plate reader (Molecular Devices, UK). Inhibition of human FAAH 1 activity, by the compounds, was determined as the percentage reduction in relative fluorescence units (RFU) compared to the ‘total’ controls (in the absence of compound) minus the ‘non-specific’ controls. IC50 values were determined, from 10-point dose response curves, in XL-Fit using a 4-Parameter Logistic Model (Sigmoidal Dose-Response Model)."}, "[3]": {"system": "carrageenan-induced thermal hypersensitivity", "assay": "Rat carrageenan induced thermal hyperalgesia model of inflammatory pain", "format": "in vivo", "protocol": "Part C Rat Carrageenan Induced Thermal Hyperalgesia Model of Inflammatory Pain.\nMale Wistar rats were assessed for thermal pain sensitivity by applying a focused light beam onto the hind paws and recording the time to paw withdrawal, before and after local intraplantar administration of carrageenan. After 3 h, thermal pain sensitivity was reassessed in treated and untreated hind paws prior to dosing with test compound or vehicle. Indomethacin was administered as a positive control.\nMale Sprague Dawley rats were tail-marked, and acclimatised to the plantar boxes on 3 separate occasions (6, 5 and 1 day prior to the test day) for at least 5 min on each occasion. On the pre-test day, the rats were habituated to the test room for at least 30 min prior to testing. The rats were put into the Hargreaves plantar boxes, allowed to settle down for approx 3-5 min, and challenged with the mobile radiant heat source. The latency to withdraw both left and right hindpaws from the heat source was determined on 2 occasions (3 min apart). The mean across the 2 challenges was recorded as the baseline for each animal. Rats 18 and 30 were not used in the study as they had very high baseline readings, and they were replaced by 61 and 63. Rats were then allocated to drug treatments ensuring the baseline latencies were balanced across groups.\nOn the test day, rats received intraplantar carrageenan lambda (100 uL of 1% in saline), or saline in right hindpaw 3 hours before testing. Four hours before testing, rats received VER-158416 (1, 3, or 10 mg/kg) or vehicle (5% EtOH: 95% (1% methylcellulose in water) p.o. Subsequently, 30 min before testing, rats received a second injection of either indomethacin 10 mg/kg or vehicle (50% 0.1M Na2CO3: 47.5% phosphate buffered saline (PBS): 2.5% 1M HCl) i.p. At the scheduled test time following drug treatment, the latency to withdraw the paw from the radiant heat source was reassessed by a single reading.\nFor example, the compound of Example 13 above was tested as follows:\nRats were dosed with intraplantar carrageenan at t=0; the compound of Example 13 (1, 3 & 10 mg/kg po) or vehicle (5% EtOH: 95% (1% methylcellulose in water) at t=2 h; indomethacin (10 mg/kg ip) or vehicle at t=2.5 h and thermal sensitivity was measured at t=3 h. Thus all rats received both oral and ip dosing."}}, "data": [{"smiles": "O=C(Nc1ccccc1)N1CC(Oc2ccc(-c3ccccc3)cc2)C1", "note": "[Example 1, 3-(biphenyl-4-yloxy)-azetidine-1-carboxylic acid phenylamide]", "values": [{"measurement": "IC50", "setting": "[1]", "value": 135, "unit": "nM"}]}, {"smiles": "O=C(Nc1cccc(F)c1)N1CC(Oc2ccc(-c3ccccc3)cc2)C1", "note": "[Example 2, 3-(Biphenyl-4-yloxy)-azetidine-1-carboxylic acid (3-fluoro-phenyl)-amide]", "values": [{"measurement": "IC50", "setting": "[1]", "value": 279, "unit": "nM"}]}, {"smiles": "O=C(Nc1ccccc1F)N1CC(Oc2ccc(-c3ccccc3)cc2)C1", "note": "[Example 3, 3-(Biphenyl-4-yloxy)-azetidine-1-carboxylic acid (2-fluoro-phenyl)-amide]", "values": [{"measurement": "IC50", "setting": "[1]", "value": 77, "unit": "nM"}]}, {"smiles": "O=C(Nc1cccnc1)N1CC(Oc2ccc(-c3ccccc3)cc2)C1", "note": "[Example 4, 3-(Biphenyl-4-yloxy)-azetidine-1-carboxylic acid pyridin-3-ylamide]", "values": [{"measurement": "intrinsic-FAAH inhibitory potency", "setting": "FAAH", "value": "good"}, {"measurement": "IC50", "setting": "[1]", "value": 67, "unit": "nM"}, {"measurement": "plasma concentrations after oral administration", "setting": "[2]", "value": "high and prolonged"}]}, {"smiles": "COCCOc1cccc(-c2ccc(OC3CN(C(=O)Nc4ccncn4)C3)nc2)c1", "note": "[Example 5, 3-{5-[3-(2-Methoxy-ethoxy)-phenyl]-pyridin-2-yloxy}-azetidine-1-carboxylic acid pyrimidin-4-ylamide]", "values": [{"measurement": "IC50", "setting": "human FAAH 1", "value": 9, "unit": "nM"}]}, {"smiles": "COCCOc1cccc(-c2ccc(OC3CN(C(=O)Nc4cnccn4)C3)nc2)c1", "note": "[Example 6, 3-{5-[3-(2-Methoxy-ethoxy)-phenyl]-pyridin-2-yloxy}-azetidine-1-carboxylic acid pyrazin-2-ylamide]", "values": [{"measurement": "IC50", "setting": "human FAAH 1", "value": 73, "unit": "nM"}]}, {"smiles": "COCCOc1cccc(-c2ccc(OC3CN(C(=O)Nc4cccnn4)C3)nc2)c1", "note": "[Example 7, 3-{5-[3-(2-Methoxy-ethoxy)-phenyl]-pyridin-2-yloxy}-azetidine-1-carboxylic acid pyridazin-3-ylamide]", "values": [{"measurement": "intrinsic-FAAH inhibitory potency", "setting": "FAAH", "value": "good"}, {"measurement": "IC50", "setting": "human FAAH 1", "value": 19, "unit": "nM"}, {"measurement": "plasma concentrations after oral administration", "setting": "[2]", "value": "high and prolonged"}]}, {"smiles": "COCCOc1cccc(-c2ccc(OC3CN(C(=O)Nc4cccnc4)C3)nc2)c1", "note": "[Example 8, 3-{5-[3-(2-Methoxy-ethoxy)-phenyl]-pyridin-2-yloxy}-azetidine-1-carboxylic acid pyridin-3-ylamide]", "values": [{"measurement": "IC50", "setting": "human FAAH 1", "value": 18, "unit": "nM"}]}, {"smiles": "O=C(Nc1cccnn1)N1CC(Oc2ccc(-c3cccc(OCCOCc4ccccc4)c3)cn2)C1", "note": "[Example 9, 3-{5-[3-(2-Benzyloxy-ethoxy)-phenyl]-pyridin-2-yloxy}-azetidine-1-carboxylic acid pyridazin-3-ylamide]", "values": [{"measurement": "IC50", "setting": "human FAAH 1", "value": 3, "unit": "nM"}]}, {"smiles": "O=C(Nc1cccnn1)N1CC(Oc2ccc(-c3cccc(OCCO)c3)cn2)C1", "note": "[Example 10, 3-{5-[3-(2-Hydroxy-ethoxy)-phenyl]-pyridin-2-yloxy}-azetidine-1-carboxylic acid pyridazin-3-ylamide]", "values": [{"measurement": "IC50", "setting": "human FAAH 1", "value": 49, "unit": "nM"}]}, {"smiles": "COCCOc1ccc(OC)c(-c2ccc(OC3CN(C(=O)Nc4cccnn4)C3)nc2)c1", "note": "[Example 11, 3-{5-[2-Methoxy-5-(2-methoxy-ethoxy)-phenyl]-pyridin-2-yloxy}-azetidine-1-carboxylic acid pyridazin-3-ylamide]", "values": [{"measurement": "IC50", "setting": "human FAAH 1", "value": 19, "unit": "nM"}]}, {"smiles": "COc1ccc(OC)c(-c2ccc(OC3CN(C(=O)Nc4cccnn4)C3)nc2)c1", "note": "[Example 12, 3-[5-(2,5-Dimethoxy-phenyl)-pyridin-2-yloxy]-azetidine-1-carboxylic acid pyridazin-3-ylamide]", "values": [{"measurement": "IC50", "setting": "human FAAH 1", "value": 12, "unit": "nM"}]}, {"smiles": "O=C(Nc1cccnn1)N1CC(Oc2ccc(-c3ccccc3)cn2)C1", "note": "[Example 13, 3-(5-Phenyl-pyridin-2-yloxy)-azetidine-1-carboxylic acid pyridazin-3-ylamide]", "values": [{"measurement": "intrinsic-FAAH inhibitory potency", "setting": "FAAH", "value": "good"}, {"measurement": "IC50", "setting": "human FAAH 1", "value": 38, "unit": "nM"}, {"measurement": "plasma concentrations after oral administration", "setting": "[2]", "value": "high and prolonged"}, {"measurement": "effect on contralateral paw sensitivities to thermal pain", "setting": "[3]; 1, 3, 10 mg/kg p.o., rat", "value": "no effect"}, {"measurement": "inhibition of carrageenan-induced thermal hypersensitivity", "setting": "[3]; 1, 3, 10 mg/kg p.o., rat", "value": "dose-related inhibition"}, {"measurement": "reduction of pain sensitivity to below normal levels", "setting": "[3]; 1, 3, 10 mg/kg p.o., rat", "value": "did not reduce pain sensitivity to below normal levels"}, {"measurement": "statistical significance of inhibition vs vehicle/carrageenan group", "setting": "[3]; at 3 and 10 mg/kg doses p.o., one way ANOVA, Newman-Keuls", "value": "reached statistical significance"}]}, {"smiles": "O=C(Nc1cccnn1)N1CC(Oc2ccc(-c3c(F)cccc3F)cn2)C1", "note": "[Example 14, 3-[5-(2,6-Difluoro-phenyl)-pyridin-2-yloxy]-azetidine-1-carboxylic acid pyridazin-3-ylamide]", "values": [{"measurement": "IC50", "setting": "human FAAH 1", "value": 14, "unit": "nM"}]}, {"smiles": "COCCOc1ccc(Cl)c(-c2ccc(OC3CN(C(=O)Nc4cccnn4)C3)nc2)c1", "note": "[Example 15, 3-{5-[2-Chloro-5-(2-methoxy-ethoxy)-phenyl]-pyridin-2-yloxy}-azetidine-1-carboxylic acid pyridazin-3-yl-amide]", "values": [{"measurement": "IC50", "setting": "human FAAH 1", "value": 7, "unit": "nM"}]}, {"smiles": "O=C(Nc1cnccn1)N1CC(Oc2ccc(-c3ccccc3F)cn2)C1", "note": "[Example 16, 3-[5-(2-Fluoro-phenyl]-pyridin-2-yloxy]-azetidine-1-carboxylic acid pyrazin-2-ylamide]", "values": [{"measurement": "IC50", "setting": "human FAAH 1", "value": 42, "unit": "nM"}]}, {"smiles": "COc1ccccc1-c1ccc(OC2CN(C(=O)Nc3cccnn3)C2)nc1", "note": "[Example 17, 3-[5-(2-Methoxy-phenyl)-pyridin-2-yloxy]-azetidine-1-carboxylic acid pyridazin-3-ylamine]", "values": [{"measurement": "plasma concentrations after oral administration", "setting": "[2]", "value": "high and prolonged"}]}, {"smiles": "O=C(Nc1cccnn1)N1CC(Oc2ccc(-c3ccccc3F)cn2)C1", "note": "[Example 18, 3-[5-(2-Fluoro-phenyl)-pyridin-2-yloxy]-azetidine-1-carboxylic acid pyridazin-3-ylamide]", "values": [{"measurement": "intrinsic-FAAH inhibitory potency", "setting": "FAAH", "value": "good"}, {"measurement": "IC50", "setting": "human FAAH 1", "value": 16, "unit": "nM"}, {"measurement": "plasma concentrations after oral administration", "setting": "[2]", "value": "high and prolonged"}]}, {"smiles": "COc1cccc(-c2ccc(OC3CN(C(=O)Nc4cccnn4)C3)nc2)c1F", "note": "[Example 19, 3-[5-(2-Fluoro-3-methoxy-phenyl)-pyridin-2-yloxy]-azetidine-1-carboxylic acid pyridazin-3-ylamide]", "values": [{"measurement": "IC50", "setting": "human FAAH 1", "value": 26, "unit": "nM"}]}]}
